Data: patent publication US10266490B2, “Radioprotector compounds” (GEORGETOWN UNIVERSITY, priority 2012, dated 2019)

What was measured:
[1] = tested on: cultured cells (e.g., fibroblasts and epithelial cells); assay: Radiation protection of cultured cells (clonogenic survival, various cell types); type: cell-based; conditions: for radiation protection relative to DIM: cultured cells
Source text: DIM, a metabolite of indole-3-carbinol and a proposed […], is a potent radiation protector in cultured cells and in rodents (mice and rats). The preparation of DIM that was used for most experiments was a microencapsulated form of DIM produced by BioResponse Nutrients (Boulder, Colo.). This microencapsulated form of DIM is designed with specific excipients (e.g., alpha-tocopherol succinate and phosphatidylcholine) to provide enhanced absorption and, therefore, enhanced bioavailability.
(§1) Following the indicated treatment(s), subconfluent proliferating cells were irradiated with different doses of ^137Cs γ-rays, harvested using trypsin, and plated at different densities in the absence or presence of DIM (as indicated) for colony formation (clonogenic survival) assays, as described in Zhang et al., Radiat Res, 161:667-674 (2004). Values of surviving fraction are means±SEMs of triplicate plates.
Novel compounds were synthesized, which we have tested for their ability to protect cells against radiation in cultured cells. […] None of these compounds are predicted to be free-radical scavengers or to be genotoxic. For reference, clonogenic radiation survival curves of cultured human mammary epithelial cells treated without or with DIM are shown in FIG. 6, panels A and B. In these studies, human mammary epithelial cells at about 70-80% of confluency were treated with DIM (0.3 μM) or vehicle ([…]) for 24 hours. The cells were then irradiated using different doses of ^137Cs gamma rays, harvested, plated at different densities in the presence of DIM (0.3 μM) or vehicle, respectively, incubated for 14 days, and then counted for colony formation. In FIG. 6, panels A and B, the clonogenic survival curves are shown using non-tumorigenic human mammary epithelial cell lines Hs5788st (panel B) or 184A1 (panel A). All cell survival values are means±SEMs of three replicate dishes.

ATM = assay: Western blot of ATM signaling, 184A1 cells; type: cell-based, human; conditions: KU55933 10 μM
Experimental: FIG. 7A contains Western blots of subconfluent proliferating 184A1 human mammary epithelial cells exposed to DIM (0.3 μM) for different time intervals. Phosphorylated or total levels of ATM and of several different ATM substrate proteins were determined, as indicated. As a negative control, cells were treated with a selective inhibitor of ATM kinase activity (KU55933). FIG. 7B contains Western blots of 184A1 cells either untreated or treated with radiation (2-Gy of γ-radiation) and/or DIM (0.3 μM).
FIG. 8 contains a Western blot of subconfluent proliferating 184A1 human mammary epithelial cells exposed to DIM (0.3 μM) for different time intervals. Phosphorylated or total levels of ATM and of different DNA damage-response proteins were determined, as indicated.
Western blotting was performed. The primary antibodies were as follows: rabbit polyclonal anti-BRCA1 (sc-642, Santa Cruz); mouse monoclonal α-actin (sc-1616, Santa Cruz); anti-phospho-BRCA1 (S1387) [AB3257, Millipore (Billerica, Mass.)]; mouse monoclonal anti-ATM (sc-73615, Santa Cruz,); anti-phospho-ATM (S1981); anti-CHK2 (05-649, mouse monoclonal, Millipore); anti-phosph-CHK2 (T68) (ab32055, rabbit monoclonal, Abcam, Cambridge, Mass.); anti-p53 (ab2433, rabbit polyclonal, Abcam), and rabbit polyclonal anti-phospho-p53 (S15) (ab38497, Abcam).

[2] = tested on: non-homologous end joining; assay: DNA strand rejoining assay (linearized plasmid pEGFP-1, nuclear lysates); type: cell-based, human; conditions: 184A1 cells; inhibitor 10 μM
Experimental: FIGS. 11A and 11B show subconfluent proliferating 184A1 (FIG. 11A) or Hs578Bst (FIG. 11B) cells pre-treated±DIM (0.3 μM×24 hr); exposed to radiation (3-Gy) on ice; and subjected to neutral comet assays at different times post-irradiation. Values of % tail DNA are means±ranges of two determinations. […] At 24-hr after irradiation, cells were analyzed by flow cytometry for apoptosis, by measuring membrane redistribution of phosphatidylserine. The percentage of early and late apoptotic cells for non-irradiated control cells were: vehicle treated, 1.25% and 1.34%, and DIM-treated, 0.54% and 1.02%, respectively.
After the indicated cell treatment(s), nuclear lysates were prepared and aliquots of lysate (50 or 75 μg of nuclear protein) were tested for their ability to rejoin a plasmid (pEGFP-1, Clontech) that had been linearized using restriction enzyme SmaI. The reaction products were detected by Southern blotting, which was performed with a digoxigenin-labeled enhanced green fluorescent protein RNA probe. The percent rejoined plasmids […] was determined by densitometric quantification of the bands corresponding to rejoined and unrejoined plasmid.
Since ATM is known to have a major role in the repair of radiation-induced double-strand breaks (DSBs) of DNA, it was tested whether DIM could stimulate the repair of DSBs. The neutral comet assay is an electrophoretic method to measure DNA damage that reflects DSBs. The percent of tail DNA after irradiation reflects the number of DSBs. […] A DNA strand-rejoining assay based on the ability of cell nuclei to rejoin a linearized plasmid (pEGFP-1) was also performed, detected by Southern blotting. This assay reflects the process of non-homologous end joining (NEHJ).

[3] = tested on: Hs578Bst human mammary epithelial cells; assay: Clonogenic survival after radiation, Hs578Bst cells; type: cell-based; conditions: single dose of radiation (8-Gy); different concentrations
Source text: as §1
It was next tested whether DIM could protect cultured cells against radiation using clonogenic survival (colony formation) assays. Cells were exposed to DIM (0.3 μM) for 24-hr, irradiated, and harvested for colony formation assays. […]
Novel compounds were synthesized, which we have tested for their ability to protect cells against radiation in cultured cells. […] The cells were then irradiated using different doses of ^137Cs gamma rays, harvested, plated at different densities in the presence of DIM (0.3 μM) or vehicle, respectively, incubated for 14 days, and then counted for colony formation. […]
Cells at about 70-80% confluency were treated with vehicle (DMSO) or with the indicated compound (1 μM) for 24 hours, irradiated using different doses of ^137Cs gamma rays, harvested, plated at different densities in the presence of the compound (0.3 μM) or vehicle, respectively, incubated for 14 days, and then counted for colony formation. […]

COc1ccc2c(c1)[nH]c1c(C)c(OS(=O)(=O)c3cccc4c(N(C)C)cccc34)ccc12 [KED-4-69]
radiation protection relative to DIM [1]: strong levels of radiation protection similar to, slightly greater than, or slightly less than DIM

O=c1cc(-c2cccc3c2Sc2ccccc2S3)oc(N2CCOCC2)c1 [KU55933]
effect on DIM-induced phosphorylations of ATM, BRCA1 and CHK2 (ATM): blocked | effect on DIM-induced strand-rejoining [2]: blocked DIM-induced strand-rejoining

CCOC(=O)C(O)(c1c(C)n(C)c2ccccc12)C(F)(F)F (stereo not drawn) [THW-5-85]
radiation protection relative to DIM [1]: strong levels of radiation protection similar to, slightly greater than, or slightly less than DIM | potency of survival enhancement relative to DIM [3]: at least as potent as DIM

c1ccc2c(Cc3c[nH]c4ccccc34)c[nH]c2c1 [crystalline DIM, 3,3′-diindolylmethane]
radioprotection of cultured cells ([1]; ionizing radiation, clonogenic survival assays): work very well as radioprotectors
